Counter-ions that a name gives are not always drawn.
Key:
[1] = Powder flowability: mass flow rate through an orifice (Pharmatest PTG-S4); assay type: physicochemical; conditions: orifice inner diameter 15 mm; 100 g powder
Procedure: The powder flowability was determined with a Pharmatest PTG-S4 automated powder characterization instrument (Pharma Test Apparatebau AG, Hainburg, Germany). This system measures the flow behavior of granules and powders in compliance with the current EP <2.9.36/17> and USP <1174> pharmacopoeia as well as with the international ISO 4324 standards.
Mass flow rate (g/min) was determined via the method of flow through an orifice. Flow rate is interpreted as the time needed for a specified amount of powder (100 g) to flow through an orifice with different diameters. A free-flowing powder should be able to flow through the whole set of diameters 5, 7, 9, 10, and 15 mm. The plot of flow rate vs. orifice diameter is referred as flow curve. Three parallel measurements were performed to determine the flow rate.
Flowability of the two mixtures was then tested as described in Example 1.

[2] = Vitamin B12 content uniformity (RSD from HPLC assays); assay type: physicochemical; conditions: tablets with 549.9 mg calcium phosphate anhydrous and 0.0078 mg vitamin B12
Procedure: “Uniformity of content” ensures that a consistent dose of an active pharmaceutical ingredient (e.g. of vitamin B12) is maintained in each portion of a composition, even if the composition is subdivided into a large number of very small portions. By way of example, when controlling the quality of e.g. capsules or tablets, uniformity of content is determined. To do so, multiple e.g. capsules or tablets are selected at random and a suitable analytical method is applied to assay the individual content of the active pharmaceutical ingredient in each capsule or tablet. The relative standard deviation (RSD) can then be calculated. The lower the RSD, the better the uniformity of content. An RSD of more than […] is clearly unacceptable. The term “uniformity of vitamin B12 content” is used when multiple solid pharmaceutical dosage forms are selected at random and a suitable analytical method is applied to assay the individual content of vitamin B12 in each solid pharmaceutical dosage form.
Tablets were compressed with a Korsch XL 100 rotary tableting machine (Korsch A G, Berlin, Germany) using an oblong punch of 22×9 mm and compression force of 20 kN.
Vitamin B12 content uniformity was then evaluated via the standard deviation RSD (%) calculated from 10 individual assay determinations (HPLC analysis conducted by Eurofins®, Germany).

Flow rate, measured with orifice having the indicated inner diameter [1]	vitamin B12 content uniformity rating [2]	Molecule
very low	–	CN(C)C(=N)N=C(N)N [metformin HCl]
–	extremely poor	cyanocobalamin [vitamin B12 crystals]
